# Results published in article PMC2621068 (Neuropeptides, 2008).
# What was measured:
# Kuming mice [1] = conditions: mouse, in vivo
# Kuming mice [2] = format: in vivo, mouse; conditions: n = 8
# female Kuming mice = conditions: mouse, in vivo
compound,measurement,setting,value
"CC(C(O)c1ccc(O)cc1)N1CCC(Cc2ccccc2)CC1 (centres unmarked) [ifenprodil, reference compound]",Increase in paw width,Kuming mice [1],1.10 ± 0.05 mm
same,"Injected paw width, after formalin injection",Kuming mice [1],2.70 ± 0.04 mm
same,"Injected paw width, before formalin injection",Kuming mice [1],1.59 ± 0.04 mm
same,first phase response of the formalin test (in words),Kuming mice [2],without effect in both phases
same,second phase response of the formalin test (in words),Kuming mice [2],without effect in both phases
same,"Paw withdrawal latency after administration, 30 min",female Kuming mice,11.1 ± 3.7 s
same,"Paw withdrawal latency after administration, 90 min",female Kuming mice,11.1 ± 4.6 s
same,"Paw withdrawal latency after administration, 150 min",female Kuming mice,11.2 ± 3.0 s
same,"Paw withdrawal latency after administration, 240 min",female Kuming mice,12.8 ± 3.0 s
same,Paw withdrawal latency before administration,female Kuming mice,10.8 ± 2.4 s
same,antinociception in the hot-plate test (in words),female Kuming mice,had no effect
